From ChEMBL document CHEMBL5365481, “Design, Synthesis, and Activity Evaluation of Novel Dual-Target Inhibitors with Antifungal and Immunoregulatory Properties” (J Med Chem, 2023)
In brackets after ≈: the same amount, converted by molar mass. Activity calls are given as the source filed them. The calls are words filed in the database; no cut-off is given here.

How the values were obtained:
[1] = biological target: T1, Lanosterol 14-alpha demethylase (Candida albicans (strain SC5314 / ATCC MYA-2876) (Yeast), UniProt P10613); experiment: Inhibition of Candida albicans ATCC SC5314 CYP51 assessed as lanosterol content at 4 ug/ml measured after 16 hrs by GC-MS analysis relative to control; design: scale not given: the % may be the effect or the level left; details: at 4 µg/mL
T1 sequence (P10613 whole entry): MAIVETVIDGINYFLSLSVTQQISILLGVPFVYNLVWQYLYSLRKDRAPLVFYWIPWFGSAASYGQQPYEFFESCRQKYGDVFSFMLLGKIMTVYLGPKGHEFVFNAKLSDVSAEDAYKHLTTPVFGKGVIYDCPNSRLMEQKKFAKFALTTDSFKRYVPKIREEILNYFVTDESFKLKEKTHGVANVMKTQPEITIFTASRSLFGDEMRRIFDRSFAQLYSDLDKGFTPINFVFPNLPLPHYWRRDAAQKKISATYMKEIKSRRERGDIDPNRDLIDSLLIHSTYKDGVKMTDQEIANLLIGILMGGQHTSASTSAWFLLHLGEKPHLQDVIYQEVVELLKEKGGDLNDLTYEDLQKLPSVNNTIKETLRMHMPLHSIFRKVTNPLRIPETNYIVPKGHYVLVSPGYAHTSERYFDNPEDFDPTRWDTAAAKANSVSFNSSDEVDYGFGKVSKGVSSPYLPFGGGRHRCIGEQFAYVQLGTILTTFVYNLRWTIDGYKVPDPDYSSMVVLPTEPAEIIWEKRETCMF

Candida albicans [2] = experiment: In vivo antifungal activity against Candida albicans ATCC SC5314 infected in BALB/c mouse assessed as decrease in number of exogenous fungal cells at 10 ug, ip for 14 days by H and E staining based microscopy; format: functional, organism-based; details: dose 10.0 µg, time 14.0 day
Candida albicans [3] = experiment: Antifungal activity against fluconazole-resistant Candida albicans 17# assessed as inhibition of fungal growth incubated for 72 hrs by CLSI based liquid medium microdilution method; format: functional
Candida albicans [4] = experiment: Antifungal activity against fluconazole-resistant Candida albicans 904 assessed as inhibition of fungal growth incubated for 72 hrs by CLSI based liquid medium microdilution method; format: functional
Candida albicans [5] = experiment: Antifungal activity against fluconazole-resistant Candida albicans 901 assessed as inhibition of fungal growth incubated for 72 hrs by CLSI based liquid medium microdilution method; format: functional
[6] = Toxicity in BALB/c mouse infected with Candida albicans ATCC SC5314 assessed as plasma AST level at 10 ug, ip for 14 days; format: organism-based; details: in vivo, 336 h, dose 10 µg, time 14 day
Candida albicans [7] = experiment: Induction of apoptosis in Candida albicans ATCC SC5314 assessed as necrotic cells at 1 microM/ml incubated for 48 hrs by Hoechst 33258/PI staining based flow cytometry (Rvb= 0.03 +/- 0.01%); format: functional
Candida albicans [8] = experiment: In vivo antifungal activity against Candida albicans ATCC SC5314 infected in BALB/c mouse assessed as disappearance of nuclei aggregation at 10 ug, ip for 14 days by GMS staining based microscopy; format: functional, organism-based; details: dose 10.0 µg, time 14.0 day
Candida albicans [9] = experiment: Antifungal activity against Candida albicans ATCC SC5314 assessed as change in osmotic pressure at 1 microM/ml incubated for 48 hrs by absorbance based assay; format: functional, organism-based
Candida albicans [10] = experiment: In vivo antifungal activity against Candida albicans ATCC SC5314 infected in BALB/c mouse assessed as decrease in NLRP3 expression level at 10 ug, ip for 14 days by Western blot analysis; format: functional, organism-based; details: dose 10.0 µg, time 14.0 day
[11] = biological target: T1, Lanosterol 14-alpha demethylase; experiment: Inhibition of Candida albicans ATCC SC5314 CYP51 assessed as other unknown sterol content at 4 ug/ml measured after 16 hrs by GC-MS analysis (Rvb= 3.82%); design: scale not given: the % may be the effect or the level left; details: at 4 µg/mL
Candida albicans [12] = experiment: In vivo antifungal activity against Candida albicans ATCC SC5314 infected in BALB/c mouse assessed as reversal of cell morphology to normal state at 10 ug, ip for 14 days by GMS staining based microscopy; format: functional, organism-based; details: dose 10.0 µg, time 14.0 day
[13] = Toxicity in BALB/c mouse infected with Candida albicans ATCC SC5314 assessed as plasma BUN level at 10 ug, ip for 14 days; format: organism-based; details: in vivo, 336 h, dose 10 µg, time 14 day
Candida albicans [14] = experiment: In vivo antifungal activity against Candida albicans ATCC SC5314 infected in BALB/c mouse assessed as decrease in necrotic cell debris in tissue gap at 10 ug, ip for 14 days by GMS staining based microscopy; format: functional, organism-based; details: dose 10.0 µg, time 14.0 day
Aspergillus fumigatus = experiment: Antifungal activity against Aspergillus fumigatus KM8001 assessed as inhibition of fungal growth incubated for 72 hrs by CLSI based liquid medium microdilution method; format: functional
Candida albicans [15] = experiment: In vivo antifungal activity against Candida albicans ATCC SC5314 infected in BALB/c mouse assessed as decrease in COX2 expression level at 10 ug, ip for 14 days by immunohistochemical analysis; format: functional, organism-based; details: dose 10.0 µg, time 14.0 day
[16] = biological target: T1, Lanosterol 14-alpha demethylase; experiment: Inhibition of Candida albicans ATCC SC5314 CYP51 assessed as eburicol content at 4 ug/ml measured after 16 hrs by GC-MS analysis (Rvb= 3.47%); design: scale not given: the % may be the effect or the level left; details: at 4 µg/mL
[17] = Toxicity in BALB/c mouse infected with Candida albicans ATCC SC5314 assessed as morphological changes in lung at 10 ug, ip for 14 days by H and E staining based microscopy; format: organism-based; details: in vivo, 336 h, dose 10 µg, time 14 day
Candida albicans [18] = experiment: Induction of apoptosis in Candida albicans ATCC SC5314 assessed as late apoptotic cells at 1 microM/ml incubated for 48 hrs by Hoechst 33258/PI staining based flow cytometry (Rvb= 0.05 +/- 0.01%); format: functional
Candida albicans [19] = experiment: In vivo antifungal activity against Candida albicans ATCC SC5314 infected in BALB/c mouse assessed as increase in body weight at 10 ug, ip for 14 days; format: functional, organism-based; details: dose 10.0 µg, time 14.0 day
Candida albicans [20] = experiment: Induction of mitochondrial membrane depolarization in Candida albicans ATCC SC5314 assessed as depolarized cells at 1 microM/ml incubated for 24 hrs by JC-1 staining based flow cytometry assay (reference value: 0.3 to 5.1%); format: functional
Candida albicans [21] = experiment: Induction of mitochondrial membrane depolarization in Candida albicans ATCC SC5314 assessed as polarized cells at 1 microM/ml incubated for 24 hrs by JC-1 staining based flow cytometry assay (reference value: 0.28 +/- 0.02%); format: functional
Candida albicans [22] = experiment: Antifungal activity against Candida albicans ATCC SC5314 assessed as inhibition of fungal growth incubated for 72 hrs by CLSI based liquid medium microdilution method; format: functional
[23] = biological target: T1, Lanosterol 14-alpha demethylase; experiment: Inhibition of Candida albicans ATCC SC5314 CYP51 using lanosterol as substrate incubated for 30 mins by HPLC assay
Candida albicans [24] = experiment: Antifungal activity against Candida albicans ATCC SC5314 assessed as change in structural stability at 1 microM/ml incubated for 48 hrs by absorbance based assay; format: functional, organism-based
Candida albicans [25] = experiment: In vivo antifungal activity against Candida albicans ATCC SC5314 infected in BALB/c mouse assessed as decrease in IL-2 expression level at 10 ug, ip for 14 days by immunohistochemical analysis; format: functional, organism-based; details: dose 10.0 µg, time 14.0 day
Candida albicans [26] = experiment: Induction of apoptosis in Candida albicans ATCC SC5314 assessed as normal cells at 1 microM/ml incubated for 48 hrs by Hoechst 33258/PI staining based flow cytometry (Rvb= 94.8 +/- 0.3%); format: functional
Candida tropicalis = experiment: Antifungal activity against Candida tropicalis ATCC 1369 assessed as inhibition of fungal growth incubated for 72 hrs by CLSI based liquid medium microdilution method; format: functional
Candida albicans [27] = experiment: In vivo antifungal activity against Candida albicans ATCC SC5314 infected in BALB/c mouse assessed as decrease in PD-L1 expression level at 10 ug, ip for 14 days by Western blot analysis; format: functional, organism-based; details: dose 10.0 µg, time 14.0 day
Candida albicans [28] = experiment: In vivo antifungal activity against Candida albicans ATCC SC5314 infected in BALB/c mouse assessed as shrinkage in infected region at 10 ug, ip for 14 days; format: functional, organism-based; details: dose 10.0 µg, time 14.0 day
Candida albicans [29] = experiment: Antifungal activity against fluconazole-resistant Candida albicans 632 assessed as inhibition of fungal growth incubated for 72 hrs by CLSI based liquid medium microdilution method; format: functional
Candida albicans [30] = experiment: Antifungal activity against Candida albicans ATCC SC5314 assessed as decrease in fungal cell density at 1 microM/ml incubated for 48 hrs by absorbance based assay; format: functional, organism-based
Candida albicans [31] = experiment: Induction of mitochondrial membrane depolarization in Candida albicans ATCC SC5314 assessed as normal cells at 1 microM/ml incubated for 24 hrs by JC-1 staining based flow cytometry assay (reference value: 94.4 +/- 1.15%); format: functional

SMILES | Activity [1] | Activity (Candida albicans [2]) | MIC50 (Candida albicans [3]) | MIC50 (Candida albicans [4]) | MIC50 (Candida albicans [5]) | Activity [6] | Activity (Candida albicans [7]) | Activity (Candida albicans [8]) | Activity (Candida albicans [9]) | Activity (Candida albicans [10]) | Activity [11] | Activity (Candida albicans [12]) | Activity [13] | Activity (Candida albicans [14]) | MIC50 (Aspergillus fumigatus) | Activity (Candida albicans [15]) | Activity [16] | Activity [17] | Activity (Candida albicans [18]) | Activity (Candida albicans [19]) | other results
OC(Cn1cncn1)(Cn1cncn1)c1ccc(F)cc1F [FLUCONAZOLE] | 30.06% | Active | > 8 µg/mL | > 8 µg/mL | > 8 µg/mL | 79.7 IU/L | 0.02% | Active | Active | Active | 5.58% | Active | 24.2 mM | Active | > 8 µg/mL | Active | 46.52% | Non-Toxic | 0.07% | Active | Activity (Candida albicans [20]): 0.28%; Activity (Candida albicans [21]): 0.39%; MIC50 (Candida albicans [22]): 0.5 µg/mL (≈ 1.63 µM); IC50 [23]: 159 nM; Activity (Candida albicans [24]): Active; Activity (Candida albicans [25]): Active; Activity (Candida albicans [26]): 44.6%; MIC50 (Candida tropicalis): 0.5 µg/mL (≈ 1.63 µM); Activity (Candida albicans [27]): Active; Activity (Candida albicans [28]): Active; MIC50 (Candida albicans [29]): > 8 µg/mL; Activity (Candida albicans [30]): Active; Activity (Candida albicans [31]): 65.4%
CC(=O)c1ccc(C(=O)N2CCC(NC(=O)c3nc(-n4cncn4)c4ccccc4n3)CC2)cc1 | 32.47% | Active | 1 µg/mL (≈ 2.13 µM) | 2 µg/mL (≈ 4.26 µM) | 4 µg/mL (≈ 8.52 µM) | 54.9 IU/L | 0.02% | Active | Active | Active | 5.74% | Active | 17.9 mM | Active | 1 µg/mL (≈ 2.13 µM) | Active | 43.15% | Non-Toxic | 0.07% | Active | Activity (Candida albicans [20]): 1.27%; Activity (Candida albicans [21]): 0.62%; MIC50 (Candida albicans [22]): 0.25 µg/mL (≈ 0.532 µM); IC50 [23]: 263 nM; Activity (Candida albicans [24]): Active; Activity (Candida albicans [25]): Active; Activity (Candida albicans [26]): 42%; MIC50 (Candida tropicalis): 0.25 µg/mL (≈ 0.532 µM); Activity (Candida albicans [27]): Active; Activity (Candida albicans [28]): Active; MIC50 (Candida albicans [29]): 1 µg/mL (≈ 2.13 µM); Activity (Candida albicans [30]): Active; Activity (Candida albicans [31]): 42.6%
CC(C)c1ccc(C(=O)N2CCC(NC(=O)c3nc(-n4ccnc4)c4ccccc4n3)CC2)cc1 | 29.53% | Active | 2 µg/mL (≈ 4.27 µM) | > 8 µg/mL | 4 µg/mL (≈ 8.54 µM) | 66.8 IU/L | 0.03% | Active | Active | Active | 5.58% | Active | 20.2 mM | Active | 2 µg/mL (≈ 4.27 µM) | Active | 45.04% | Non-Toxic | 0.19% | Active | Activity (Candida albicans [20]): 0.1%; Activity (Candida albicans [21]): 0.1%; MIC50 (Candida albicans [22]): 0.25 µg/mL (≈ 0.534 µM); IC50 [23]: 205 nM; Activity (Candida albicans [24]): Active; Activity (Candida albicans [25]): Active; Activity (Candida albicans [26]): 45.3%; MIC50 (Candida tropicalis): 0.25 µg/mL (≈ 0.534 µM); Activity (Candida albicans [27]): Active; Activity (Candida albicans [28]): Active; MIC50 (Candida albicans [29]): 1 µg/mL (≈ 2.13 µM); Activity (Candida albicans [30]): Active; Activity (Candida albicans [31]): 52.3%
